Earlier results as cited in paper PMC10582684 (RSC Advances, 2023).
Where two headings read alike, the source gives them in different places.

How the values were obtained:
[1] = literature comparison
[2] = oligopeptides from ginkgo seed and bighead carp, high content of Pro
[3] = peptides from walnut protein with Lys in C-terminal tripeptide

## O=C(O)CN(CCN(CC(=O)O)CC(=O)O)CC(=O)O [ethylenediamine tetraacetic acid]
[1]
  Chelating ability towards zinc ions: 57.17 mg/g

## LSMSFPPF
[2]
  Stability against gastrointestinal enzymic digestion (in words): excellent stability

## PKPP
ACE; [3]
  Inhibiting ability on ACE (in words): excellent inhibiting ability on ACE

## PPKP
ACE; [3]
  Inhibiting ability on ACE (in words): excellent inhibiting ability on ACE

## PPSEPTKL
[2]
  Stability against gastrointestinal enzymic digestion (in words): excellent stability

## TGLL
[1]
  Chelating ability towards zinc ions: 2.27 mg/g

## VPKIPPP
[2]
  Stability against gastrointestinal enzymic digestion (in words): excellent stability

## WNGPKGV
ACE; peptide from corn protein with Lys in C-terminal tripeptide
  Inhibiting ability on ACE (in words): excellent inhibiting ability on ACE

## YIRLHF
ACE; peptide from bighead carp protein
  Inhibitory kinetics on ACE: competitive inhibitory kinetics
